Patent publication US20230226081A1, “PHARMACEUTICAL FORMULATIONS OF ABIRATERONE ACETATE AND NIRAPARIB” (Janssen Pharmaceutica NV, priority 2020, published 2023)

Assay: Particle size of the drug substances
Assay type: physicochemical

SMILES	d50 particle size of drug substance
Cc1ccc(S(=O)(=O)O)cc1.NC(=O)c1cccc2cn(-c3ccc([C@@H]4CCCNC4)cc3)nc12 [niraparib tosylate monohydrate, 2-[4-[(3S)-piperidin-3-yl]phenyl]-2H-indazole-7-carboxamide tosylate monohydrate]	around 50 μm
CC(=O)O[C@H]1CC[C@@]2(C)C(=CC[C@@H]3[C@@H]2CC[C@]2(C)C(c4cccnc4)=CC[C@@H]32)C1 [Abiraterone acetate]	4-5 μm
